We go through seven compounds from patent publication US20180273528A1 (LES LABORATOIRES SERVIER, priority 2015, published 2018).

Holding throughout (format): biochemical
The target in one assay is T1, CDK9 (Homo sapiens, UniProt P50750).
T1 construct: full-length human kinases from Carna Biosciences; purchased Carna Biosciences 04-110
Briefly: Kinase TR-FRET assay, CDK9. The following applies: full-length human kinase, 10 μM ATP. The essentials: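 Full-length human CDK9 (0.9 ng/μl) incubated 100 min at room temperature with 10 μM ATP, 100 nM ULight-MBP peptide and compound (0.1 nM–30 μM) in 50 mM HEPES pH 7.4, 1 mM EGTA, 10 mM MgCl2, 2 mM DTT, 0.01% Tween20. Stopped with 10 mM EDTA, then 1 nM Eu-anti-phospho-Thr232 MBP antibody added for 1 h. TR-FRET read at 665/620 nm with 340 nm excitation.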

Assay [1] deals with T2, His-TEV-DYRK1A Kinase domain (aa127-485) (Homo sapiens, UniProt Q13627).
T2 construct: His-TEV-DYRK1A Kinase domain (aa127-485); His tag (N); TEV protease cleavage site (N)
Briefly: Kinase ADP assay (ADP Hunter), DYRK1A kinase domain. The settings on record: 20 μM ATP. In a few lines:
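Compounds incubated 10 min at 30 °C with 20 nM enzyme, 40 μM peptide substrate and 20 μM ATP in pH 7.4 Hepes buffer with 10 mM MgCl2. ADP formed detected by ADP Hunter Plus reagents after 20 min at 30 °C, fluorescence read at 590 nm.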

The next assay addresses DYRK1A (Homo sapiens, UniProt Q13627). Briefly: Kinase TR-FRET assay, DYRK1A. Set-up: full-length, wild-type human DYRK1A (NM_001396) with an HA tag; expressed in transfected cells; host or cells: human U2-OS osteosarcoma cells, transient transfection of a pcDNA3.1 plasmid. The settings on record: full-length human kinase, 10 μM ATP. In a few lines: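 Compounds tested at 0.1 nM to 30 μM in reaction buffer; reaction stopped with 10 mM EDTA. Phosphorylated MBP detected with 1 nM Europium-labelled anti-phospho-Thr232 antibody by TR-FRET.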
Background: TR-FRET usually uses a lanthanide donor and a delayed reading to cut background.

T1 sequence (P50750 whole entry): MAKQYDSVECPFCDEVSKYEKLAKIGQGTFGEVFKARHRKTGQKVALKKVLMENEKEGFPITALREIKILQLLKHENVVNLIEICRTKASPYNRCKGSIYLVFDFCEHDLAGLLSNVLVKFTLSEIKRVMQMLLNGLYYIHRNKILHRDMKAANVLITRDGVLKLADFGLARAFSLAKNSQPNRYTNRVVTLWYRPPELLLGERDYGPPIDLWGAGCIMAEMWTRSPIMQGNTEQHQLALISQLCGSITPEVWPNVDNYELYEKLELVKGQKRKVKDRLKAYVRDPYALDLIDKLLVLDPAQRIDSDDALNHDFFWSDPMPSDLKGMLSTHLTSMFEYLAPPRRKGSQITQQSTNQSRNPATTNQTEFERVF
T1 sequence (O60563 whole entry partner): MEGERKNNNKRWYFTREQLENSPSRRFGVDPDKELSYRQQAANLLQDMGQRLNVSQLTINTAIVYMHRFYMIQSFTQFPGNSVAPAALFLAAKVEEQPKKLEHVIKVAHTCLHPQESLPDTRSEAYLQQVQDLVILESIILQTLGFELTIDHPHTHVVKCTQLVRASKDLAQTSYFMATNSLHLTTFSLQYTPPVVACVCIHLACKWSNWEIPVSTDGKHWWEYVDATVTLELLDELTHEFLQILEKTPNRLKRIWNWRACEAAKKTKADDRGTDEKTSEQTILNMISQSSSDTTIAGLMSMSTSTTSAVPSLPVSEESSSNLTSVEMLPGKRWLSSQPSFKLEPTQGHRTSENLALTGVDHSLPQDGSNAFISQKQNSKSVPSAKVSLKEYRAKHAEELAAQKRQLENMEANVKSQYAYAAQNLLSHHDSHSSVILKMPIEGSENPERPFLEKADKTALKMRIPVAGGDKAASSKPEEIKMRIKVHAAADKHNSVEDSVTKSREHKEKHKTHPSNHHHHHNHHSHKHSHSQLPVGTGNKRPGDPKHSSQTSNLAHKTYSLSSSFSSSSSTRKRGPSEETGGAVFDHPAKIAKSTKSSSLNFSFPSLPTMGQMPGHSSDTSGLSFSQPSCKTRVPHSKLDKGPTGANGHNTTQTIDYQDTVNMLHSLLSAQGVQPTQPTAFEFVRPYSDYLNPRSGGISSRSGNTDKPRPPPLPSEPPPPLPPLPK

In general, IC50 refers to the concentration that gives 50% inhibition. Take `Cc1nc2ccc(-c3cc(N)nc(N)c3)nc2n1C[C@@H](C)Oc1ccccc1` (single isomer, unassigned) [Example 106]: the IC50 at CDK9 was above 3 µM; in assay [1] it was 0.012 µM; against DYRK1A it was 0.008 µM.

Take `Cc1nc2ccc(-c3cc(N)nc(N)c3)nc2n1C1CC1` [Example 9, 4-(3-cyclopropyl-2-methyl-3H-imidazo[4,5-b]pyridin-5-yl)pyridine-2,6-diamine]: the concentration for half-maximal inhibition (IC50) against CDK9 was 2.15 µM; in assay [1], 0.007 µM; on DYRK1A, 0.011 µM.

With `Cc1nc2ccc(-c3cc(N)nc(N)c3)nc2n1Cc1ccoc1` [Example 42, 4-[3-(furan-3-ylmethyl)-2-methyl-3H-imidazo[4,5-b]pyridin-5-yl]pyridine-2,6-diamine], the values for the IC50 (against CDK9; in assay [1]; at DYRK1A) were 2.94 µM, 0.008 µM and 0.012 µM, respectively.

As for `Cc1nc2ccc(-c3cc(N)nc(N)c3)nc2n1CCCC(F)(F)F` [Example 71, 4-[2-methyl-3-(4,4,4-trifluorobutyl)-3H-imidazo[4,5-b]pyridin-5-yl]pyridine-2,6-diamine], the results for the IC50 (against CDK9; in assay [1]; on DYRK1A) were 1.41 µM, 0.006 µM and 0.006 µM, respectively.

As for `Cc1nc2ccc(-c3cc(N)nc(N)c3)nc2n1C1CC(F)(F)C1` [Example 101, 4-[3-(3,3-difluorocyclobutyl)-2-methyl-3H-imidazo[4,5-b]pyridin-5-yl]pyridine-2,6-diamine], the values for the concentration for half-maximal inhibition (IC50) (against CDK9; in assay [1]; on DYRK1A) were 1.26 µM, 0.006 µM and 0.003 µM, respectively.

As for `Cc1nc2ccc(-c3cc(N)nc(N)c3)nc2n1C1CC(F)C1` (stereo not drawn) [Example 103, 4-[3-(3-fluorocyclobutyl)-2-methyl-3H-imidazo[4,5-b]pyridin-5-yl]pyridine-2,6-diamine], the IC50 at CDK9 was 0.666 µM; in assay [1], 0.006 µM; against DYRK1A, 0.006 µM.

For the compound `CCn1c(C)nc2ccc(-c3cc(N)nc(N)c3)nc21` [Example 154, 4-(3-ethyl-2-methyl-3H-imidazo[4,5-b]pyridin-5-yl)pyridine-2,6-diamine], the figures for the IC50 (against CDK9; in assay [1]; at DYRK1A) were 3.39 µM, 0.007 µM and 0.004 µM, respectively.
